From ChEMBL document CHEMBL1152405, “Bis-anthracenyl isoxazolyl amides have enhanced anticancer activity” (Bioorg Med Chem Lett, 2009)

Test system: SNB-19
Experiment: Antitumor activity against human SNB19 cells after 24 hrs
Type: functional, cell-based
Conditions: SNB-19, 24 h

Cc1onc(-c2c3ccccc3c(Cl)c3ccccc23)c1C(=O)Nc1cc(C(=O)NCCCN(C)C)n(C)c1
IC50: 6.21 µM
